Reference: patent US9023821B2, “Use of MicroRNA for treating diseases associated with a dysfunction of the cilia in multiciliated epithelial cells” (Centre National de la Recherche Scientifique, priority 2009, dated 2015)

Tests used:
[1] = system: human airway epithelial cells (HAECs); experiment: Agilent miRNA chips, miRNA expression at four stages of differentiation of HAECs; conditions: for Modulation (ratio of the level of intensity of expression in log2 in two stages of differentiation) measured with the Agilent chips, D7 − D0 / Modulation (ratio of the level of intensity of expression in log2 in two stages of differentiation) measured with the Agilent chips, FC − D7 / Modulation (ratio of the level of intensity of expression in log2 in two stages of differentiation) measured with the Agilent chips, WD − D0 / Modulation (ratio of the level of intensity of expression in log2 in two stages of differentiation) measured with the Agilent chips, WD − FC / Level of intensity of expression in log2 measured with the Agilent chips, D0 / Level of intensity of expression in log2 measured with the Agilent chips, D7 / Level of intensity of expression in log2 measured with the Agilent chips, FC / Level of intensity of expression in log2 measured with the Agilent chips, WD: Table VI; for Modulation (ratio of the level of intensity of expression in log2 at two stages of differentiation), FC − D7 / Modulation (ratio of the level of intensity of expression in log2 at two stages of differentiation), WD − FC: Agilent miRNA chips, Table V; for Level of intensity of expression in log2 measured with the Agilent chips, D0: stage D0; for Level of intensity of expression in log2 measured with the Agilent chips, D7: stage D7; for Level of intensity of expression in log2 measured with the Agilent chips, FC: stage FC; for Level of intensity of expression in log2 measured with the Agilent chips, WD: stage WD
How it was run: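 Microarray v2 (866 human + 89 viral miRNAs; miRBase v.12.0). Input: RNA from the same donors as sequencing. Labelling/hybridization per kit protocol. Profiles cross-checked vs sequencing.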

[2] = system: basal cells and pyramidal cells of the airway epithelium; experiment: miRNA expression in sorted basal cells versus pyramidal cells (ciliated + secretory), HTS and Agilent chips; parameters: species or system human; conditions: for Modulation of expression of the miRNAs in pyramidal cells (323(−)) relative to basal cells 323(+): HTS and Agilent chips; for Intensity of the level of expression in log2 in pyramidal cells (323(−)): pyramidal cells (ciliated + secretory)
How it was run: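 FACS on CD151 and tissue factor: double-positive = basal, double-negative = ciliated + mucus cells; DAPI, doublets, aggregates excluded; sort at 5000 events/s. Purity checked by cytometry/immunocytochemistry. miRNA by Agilent array or HTS on total RNA. Source: nasal polyps/conchae, 3 donors.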

[3] = system: human airway epithelial cells (HAECs); experiment: High-throughput sequencing (HTS) of miRNAs at four stages of differentiation of HAECs; conditions: for Modulation (ratio of the level of intensity of expression in log2 in two stages of differentiation) measured by high-throughput sequencing, D7 − D0 / Modulation (ratio of the level of intensity of expression in log2 in two stages of differentiation) measured by high-throughput sequencing, FC − D7 / Modulation (ratio of the level of intensity of expression in log2 in two stages of differentiation) measured by high-throughput sequencing, WD − D0 / Modulation (ratio of the level of intensity of expression in log2 in two stages of differentiation) measured by high-throughput sequencing, WD − FC / Level of intensity of expression in log2 measured by high-throughput sequencing, D0 / Level of intensity of expression in log2 measured by high-throughput sequencing, D7 / Level of intensity of expression in log2 measured by high-throughput sequencing, FC / Level of intensity of expression in log2 measured by high-throughput sequencing, WD: Table VI; for Level of intensity of expression in log2 At the differentiated stage (WD) measured in HTS: healthy human airway epithelial tissue; for Level of intensity of expression in log2 measured by high-throughput sequencing, D0: stage D0; for Level of intensity of expression in log2 measured by high-throughput sequencing, D7: stage D7; for Level of intensity of expression in log2 measured by high-throughput sequencing, FC: stage FC; for Level of intensity of expression in log2 At the differentiated stage (WD) measured in HTS / Level of intensity of expression in log2 measured by high-throughput sequencing, WD: stage WD
How it was run: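 ALI cultures sampled at day 0, day 7, first-cilia stage (~14 d) and full differentiation (~21 d). Trizol lysis, column purification retaining small RNAs. Adaptor ligation, RT at 42° C for 30 min, PCR, gel selection of ~105-150 base products.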

Substance	Modulation (ratio of the level of intensity of expression in log2 in two stages of differentiation) measured with the Agilent chips, D7 − D0 [1]	Modulation (ratio of the level of intensity of expression in log2 at two stages of differentiation), FC − D7 [1]	Modulation (ratio of the level of intensity of expression in log2 in two stages of differentiation) measured with the Agilent chips, FC − D7 [1]	Modulation (ratio of the level of intensity of expression in log2 in two stages of differentiation) measured with the Agilent chips, WD − D0 [1]	Modulation (ratio of the level of intensity of expression in log2 at two stages of differentiation), WD − FC [1]	Modulation (ratio of the level of intensity of expression in log2 in two stages of differentiation) measured with the Agilent chips, WD − FC [1]	Level of intensity of expression in log2 measured with the Agilent chips, D0 [1]	Level of intensity of expression in log2 measured with the Agilent chips, D7 [1]	Level of intensity of expression in log2 measured with the Agilent chips, FC [1]	Level of intensity of expression in log2 measured with the Agilent chips, WD [1]	Modulation of expression of the miRNAs in pyramidal cells (323(−)) relative to basal cells 323(+) [2]	Intensity of the level of expression in log2 in basal cells (323(+)) [2]	Intensity of the level of expression in log2 in pyramidal cells (323(−)) [2]	Modulation (ratio of the level of intensity of expression in log2 in two stages of differentiation) measured by high-throughput sequencing, D7 − D0 [3]	Modulation (ratio of the level of intensity of expression in log2 in two stages of differentiation) measured by high-throughput sequencing, FC − D7 [3]	Modulation (ratio of the level of intensity of expression in log2 in two stages of differentiation) measured by high-throughput sequencing, WD − D0 [3]	Modulation (ratio of the level of intensity of expression in log2 in two stages of differentiation) measured by high-throughput sequencing, WD − FC [3]	Level of intensity of expression in log2 At the differentiated stage (WD) measured in HTS [3]	Level of intensity of expression in log2 measured by high-throughput sequencing, D0 [3]	Level of intensity of expression in log2 measured by high-throughput sequencing, D7 [3]	further results
hsa-miR-23b: human miRNA, SEQ ID No. 26 (AUCACAUUGCCAGGGAUUACC; expressed or natural sequence; listed as Homo sapiens)	1.96 log2	−0.27 log2	−0.27 log2	1.72 log2	0.04 log2	0.04 log2	8.92 log2	10.88 log2	10.61 log2	10.64 log2	−2.23	9.41 log2	7.18 log2	1.30 log2	−0.17 log2	1.29 log2	0.16 log2	9.35 log2	14.06 log2	15.35 log2	Modulation (ratio of the level of intensity of expression in log2 in two stages of differentiation), D7 − D0 ([3]; HTS): 1.30 log2; Modulation (ratio of the level of intensity of expression in log2 in two stages of differentiation), FC − D7 ([3]; HTS): −0.17 log2; Modulation (ratio of the level of intensity of expression in log2 in two stages of differentiation), WD − FC ([3]; HTS): 0.16 log2; Abundance (%), D0 ([3]; HTS, ALI-D0): 3.73%; Abundance (%), D7 ([3]; HTS, ALI-D7): 9.19%; Abundance (%), FC ([3]; HTS, ALI-FC): 7.92%; Abundance (%), WD ([3]; HTS, ALI-WD): 6.72%; Level of intensity of expression in log2 measured by high-throughput sequencing, FC [3]: 15.18 log2; Level of intensity of expression in log2 measured by high-throughput sequencing, WD [3]: 15.35 log2
hsa-miR-25: human miRNA, SEQ ID No. 27 (CAUUGCACUUGUCUCGGUCUGA; expressed or natural sequence; listed as Homo sapiens)	1.35 log2	−0.65 log2	−0.65 log2	0.66 log2	−0.05 log2	−0.05 log2	7.15 log2	8.50 log2	7.85 log2	7.80 log2	−0.70	5.40 log2	4.70 log2	0.66 log2	−0.03 log2	0.24 log2	−0.39 log2	3.52 log2	9.11 log2	9.77 log2	Level of intensity of expression in log2 measured by high-throughput sequencing, FC [3]: 9.74 log2; Level of intensity of expression in log2 measured by high-throughput sequencing, WD [3]: 9.35 log2
hsa-miR-26a: human miRNA, SEQ ID No. 28 (UUCAAGUAAUCCAGGAUAGGCU; expressed or natural sequence; listed as Homo sapiens)	2.20 log2	−0.11 log2	−0.11 log2	2.15 log2	0.06 log2	0.06 log2	8.50 log2	10.70 log2	10.59 log2	10.65 log2	−2.24	9.92 log2	7.68 log2	1.31 log2	−0.98 log2	3.22 log2	2.90 log2	7.75 log2	0.30 log2	1.61 log2	Level of intensity of expression in log2 measured by high-throughput sequencing, FC [3]: 0.62 log2; Level of intensity of expression in log2 measured by high-throughput sequencing, WD [3]: 3.52 log2
hsa-miR-26b: human miRNA, SEQ ID No. 29 (UUCAAGUAAUUCAGGAUAGGU; expressed or natural sequence; listed as Homo sapiens)	1.94 log2	−0.37 log2	−0.37 log2	1.65 log2	0.08 log2	0.08 log2	7.97 log2	9.91 log2	9.54 log2	9.62 log2	−1.47	8.75 log2	7.28 log2	0.09 log2	0.05 log2	0.92 log2	0.78 log2	6.81 log2	6.84 log2	6.93 log2	Level of intensity of expression in log2 measured by high-throughput sequencing, FC [3]: 6.97 log2; Level of intensity of expression in log2 measured by high-throughput sequencing, WD [3]: 7.75 log2
